Measured values as given in ChEMBL document CHEMBL1138368, “Synthesis of thiazolone-based sulfonamides as inhibitors of HCV NS5B polymerase” (Bioorg Med Chem Lett, 2007).

How the values were obtained:
Hepatitis C virus = assay: Antiviral activity against HCV replicon assay; assay type: functional, organism-based, Hepacivirus hominis
[1] = Inhibition of HCV NS5B polymerase […]; parameters: species or system Hepacivirus hominis

SMILES	EC50 (Hepatitis C virus) [µM]	IC50 [1] [µM]
Cc1ccc(S(=O)(=O)NC2=NC(=O)C(Cc3ccco3)S2)cc1 (stereo not drawn)	200	74
Cc1ccc(S(=O)(=O)NC2=NC(=O)C(Cc3ccc(Br)o3)S2)cc1 (stereo not drawn)	64	40
CCc1ccc(/C=C2\SC(NS(=O)(=O)c3ccccc3[N+](=O)[O-])=NC2=O)o1	90	18
Cc1ccc(S(=O)(=O)NC2=NC(=O)/C(=C/c3cccs3)S2)cc1	80	12
CCCCCCN(C1=NC(=O)/C(=C/c2ccc(CC)o2)S1)S(=O)(=O)c1ccc(C)cc1	70	> 100
CCCCCCCN(C1=NC(=O)/C(=C/c2ccc(CC)o2)S1)S(=O)(=O)c1ccc(C)cc1	90	> 100
Cc1ccc(C(=O)NC2=NC(=O)/C(=C/c3ccc(C)o3)S2)cc1	60	16
CCc1ccc(/C=C2\SC(NS(=O)(=O)c3ccccc3NC(C)=O)=NC2=O)o1	200	34
Cc1ccc(S(=O)(=O)NC2=NC(=O)/C(=C/c3ccc(C)s3)S2)cc1	70	14
Cc1ccc(S(=O)(=O)NC2=NC(=O)/C(=C/c3ccc(C)o3)S2)cc1		11
Cc1ccc(C(=O)NC2=NC(=O)/C(=C/c3cccs3)S2)cc1	100	33
CCc1ccc(/C=C2\SC(NC(=O)c3ccc(C)cc3)=NC2=O)o1	200	13
Cc1ccc(C(=O)NC2=NC(=O)/C(=C/c3ccc(-c4nccs4)o3)S2)cc1	120	44
Cc1ccc(C(=O)NC2=NC(=O)/C(=C/c3ccc(-c4ccc(-c5csnn5)cc4)o3)S2)cc1	70	11
CCN(CC)c1ccc(/C=C2\SC(NS(=O)(=O)c3ccc(C)cc3)=NC2=O)cc1	90	> 100
Cc1ccc(S(=O)(=O)NC2=NC(=O)/C(=C/c3ccc(-n4cncn4)cc3)S2)cc1	100	32
Cc1ccc(S(=O)(=O)NC2=NC(=O)/C(=C/c3ccc(-n4ccnc4)cc3)S2)cc1	60	> 100
Cc1ccc(S(=O)(=O)NC2=NC(=O)C(CCCc3ccccn3)S2)cc1 (stereo not drawn)	180	> 100
CCCCCN(C1=NC(=O)/C(=C/c2ccc(CC)o2)S1)S(=O)(=O)c1ccc(C)cc1	55	> 100
Cc1ccc(S(=O)(=O)NC2=NC(=O)C(Cc3ccc(I)o3)S2)cc1 (stereo not drawn)	40	15
CCCCN(C1=NC(=O)/C(=C/c2ccc(CC)o2)S1)S(=O)(=O)c1ccc(C)cc1	33	> 100
Cc1ccc(S(=O)(=O)NC2=NC(=O)/C(=C/c3ccc(N4CCOCC4)cc3)S2)cc1	180	12
Cc1ccc(C(=O)NC2=NC(=O)/C(=C/c3ccc(-c4[nH]cnc4C)o3)S2)cc1	220	> 100

More lines, in order of falling IC50 [1], values ahead:

EC50 (Hepatitis C virus) [µM]	IC50 [1] [µM]	SMILES
27	11	CCc1ccc(/C=C2\SC(NS(=O)(=O)c3ccccc3N)=NC2=O)o1
60	11	Cc1ccc(S(=O)(=O)NC2=NC(=O)/C(=C/c3ccco3)S2)cc1
200	10	Cc1ccc(S(=O)(=O)NC2=NC(=O)/C(=C/c3cc(C)c(Cl)s3)S2)cc1
70	10	Cc1ccc(S(=O)(=O)NC2=NC(=O)/C(=C/c3ccc(-n4cccn4)cc3)S2)cc1
40	8	CCc1ccc(/C=C2\SC(NS(=O)(=O)c3cccs3)=NC2=O)o1
33	7.3	CCc1ccc(CC2SC(NS(=O)(=O)c3ccc(C)cc3)=NC2=O)o1 (stereo not drawn)
55	5.5	Cc1ccc(S(=O)(=O)NC2=NC(=O)/C(=C/c3ccc(-c4ccccc4)o3)S2)cc1
55	5	Cc1ccc(S(=O)(=O)NC2=NC(=O)/C(=C/C=C/c3ccco3)S2)cc1
9	4.9	Cc1ccc(S(=O)(=O)NC2=NC(=O)/C(=C/c3ccc(-c4nc(C(C)(C)C)cs4)cc3)S2)cc1
7	4.2	Cc1ccc(S(=O)(=O)NC2=NC(=O)/C(=C/c3ccc([N+](=O)[O-])s3)S2)cc1
200	3.2	CCc1ccc(/C=C2\SC(NS(=O)(=O)c3ccc([N+](=O)[O-])cc3)=NC2=O)o1
30	3.2	CCc1ccc(/C=C2\SC(NS(=O)(=O)c3ccc(C(F)(F)F)cc3)=NC2=O)o1
200	3.2	Cc1ccc(S(=O)(=O)NC2=NC(=O)/C(=C/c3cc(C)c(C)o3)S2)cc1
38	2.8	Cc1ccc(S(=O)(=O)NC2=NC(=O)/C(=C/c3ccc(I)o3)S2)cc1
50	2.7	Cc1ccc(S(=O)(=O)NC2=NC(=O)/C(=C/c3ccc(Br)o3)S2)cc1
25	1.4	CCc1ccc(/C=C2\SC(NS(=O)(=O)c3ccc(C)cc3)=NC2=O)o1
20	1.4	Cc1ccc(S(=O)(=O)NC2=NC(=O)/C(=C/c3ccc(-c4csnn4)cc3)S2)cc1
25	1.4	Cc1ccc(S(=O)(=O)NC2=NC(=O)/C(=C/c3ccc(N4CCCC4)cc3)S2)cc1
35	0.6	Cc1ccc(S(=O)(=O)NC2=NC(=O)/C(=C/C=C/c3ccccn3)S2)cc1
